In PMC10709440, “High-throughput ligand profile characterization in novel cell lines expressing seven heterologous insect olfactory receptors for the detection of volatile plant biomarkers” (Scientific Reports, 2023):
Like-named read-outs stand apart in the source and are kept apart here.

How the values were obtained:
OR47a = tested on: OR47a; set-up: method as in earlier work; conditions: DoOR database value, ref DoOR, cited from earlier work
OR98a = tested on: OR98a; set-up: method as in earlier work; conditions: DoOR database value, ref DoOR, cited from earlier work
OR71a = tested on: OR71a; set-up: method as in earlier work; conditions: DoOR database value, ref DoOR, cited from earlier work
OR85b = tested on: OR85b; set-up: method as in earlier work; conditions: DoOR database value, ref DoOR, cited from earlier work
OR49b = tested on: OR49b; set-up: method as in earlier work; conditions: DoOR database value, ref DoOR, cited from earlier work
OR10a = tested on: OR10a; set-up: method as in earlier work; conditions: DoOR database value, ref DoOR, cited from earlier work
Drosophila OR85b = target: T1, Drosophila OR85b (Drosophila melanogaster, UniProt Q9VHQ7); assay: Calcium ion fluorescence (GCaMP6) assay, OR85b stable HEK293 cell line; format: cell-based; conditions: for Average response / OR85b response (VUAA1-normalized) at 1 μM / OR85b response (VUAA1-normalized) at 10 μM / OR85b response (VUAA1-normalized) at 100 μM: OR85b cell line; for Average response: VUAA1-normalized response, mean of biological replicates; for DF norm AVERAGE OR85b: threshold 0.05, below shown as 0; for OR85b response (VUAA1-normalized) at 1 μM: VOC concentration 1 μM; for OR85b response (VUAA1-normalized) at 10 μM: VOC concentration 10 μM; for OR85b response (VUAA1-normalized) at 100 μM: VOC concentration 100 μM
T1 construct: expressed in transfected cells
T1 sequence (Q9VHQ7 1-390): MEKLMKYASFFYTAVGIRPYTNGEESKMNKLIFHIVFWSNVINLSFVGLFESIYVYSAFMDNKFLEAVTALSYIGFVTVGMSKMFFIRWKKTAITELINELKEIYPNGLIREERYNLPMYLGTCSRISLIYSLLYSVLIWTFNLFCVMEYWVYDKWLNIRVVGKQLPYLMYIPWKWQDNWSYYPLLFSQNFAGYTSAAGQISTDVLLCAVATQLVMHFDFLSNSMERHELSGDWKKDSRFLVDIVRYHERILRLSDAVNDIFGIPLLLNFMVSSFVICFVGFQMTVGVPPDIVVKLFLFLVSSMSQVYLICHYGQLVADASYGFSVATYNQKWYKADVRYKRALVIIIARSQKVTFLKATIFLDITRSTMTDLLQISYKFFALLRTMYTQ
T1 sequence (Q9VNB5 1-486 partner): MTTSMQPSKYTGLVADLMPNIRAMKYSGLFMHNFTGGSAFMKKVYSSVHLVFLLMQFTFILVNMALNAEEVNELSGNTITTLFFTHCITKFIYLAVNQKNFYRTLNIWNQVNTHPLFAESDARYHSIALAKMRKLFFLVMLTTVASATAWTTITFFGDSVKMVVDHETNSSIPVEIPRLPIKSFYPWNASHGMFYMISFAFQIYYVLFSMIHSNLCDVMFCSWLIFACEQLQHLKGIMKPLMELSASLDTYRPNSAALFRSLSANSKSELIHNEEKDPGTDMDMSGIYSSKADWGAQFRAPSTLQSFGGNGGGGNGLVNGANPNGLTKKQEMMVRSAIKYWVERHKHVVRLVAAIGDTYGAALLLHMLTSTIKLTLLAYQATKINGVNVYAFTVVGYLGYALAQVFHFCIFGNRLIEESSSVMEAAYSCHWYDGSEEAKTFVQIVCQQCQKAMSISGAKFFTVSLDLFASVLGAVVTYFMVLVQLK
Summary of the method: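 HEK293 lines stably expressing each Drosophila OR with GCaMP6, doxycycline-induced (1 μg/mL) 48 or 72 h. Fluorescence recorded 5 s baseline then 30 s after VOC injection at pH 7.3; ΔF=(FMAX−F0)/F0, normalized to 50 µM VUAA1 response per line, triplicate wells averaged; concentration series 0.01–100 μM.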

OR13a = tested on: OR13a; set-up: method as in earlier work; conditions: DoOR database value, ref DoOR, cited from earlier work
[1] = HEK293, read-out: OR85b response (VUAA1-normalized response)
[2] = ligand concentration 1 (unit not given)
[3] = ligand concentration 10 (unit not given)
[4] = ligand concentration 100 (unit not given)
[5] = HEK293, read-out: OR85b Average response (VUAA1-normalized)

| SMILES | OR47a DoOR response (OR47a) | OR98a DoOR response (OR98a) | OR71a DoOR response (OR71a) | OR85b DoOR response (OR85b) | Average response (Drosophila OR85b; cc. 1 µM) | Average response (Drosophila OR85b; cc. 10 µM) | Average response (Drosophila OR85b; cc. 100 µM) | DF norm AVERAGE OR85b (Drosophila OR85b; [2]) | DF norm AVERAGE OR85b (Drosophila OR85b; [3]) | DF norm AVERAGE OR85b (Drosophila OR85b; [4]) | OR47a DoOR response (OR47a; OR47a) | OR98a DoOR response (OR98a; OR98a) | OR71a DoOR response (OR71a; OR71a) | OR85b DoOR response (OR85b; OR85b) | OR49b DoOR response (OR49b; OR49b) | OR10a DoOR response (OR10a; OR10a) | OR85b response (VUAA1-normalized) at 1 μM (Drosophila OR85b) | OR85b response (VUAA1-normalized) at 10 μM (Drosophila OR85b) | OR85b response (VUAA1-normalized) at 100 μM (Drosophila OR85b) | OR13a DoOR response (OR13a; OR13a) | further results |
| --- | --- | --- | --- | --- | --- | --- | --- | --- | --- | --- | --- | --- | --- | --- | --- | --- | --- | --- | --- | --- | --- |
| C=CCc1ccc(O)c(OC)c1 [eugenol] | -0.013 | 0.15 | 0.73 | 0.053 | 0.00 | 0.0188 | 0.09 | 0 | 0 | 0.09022 | – | – | – | – | – | – | – | – | – | – | OR49b DoOR response (OR49b): 0.002; OR10a DoOR response (OR10a): 0.15; activation at 1 µM (Drosophila OR85b; [1]): 0%; activation at 10 µM (Drosophila OR85b; [1]): 0%; activation at 100 µM (Drosophila OR85b; [1]): 9%; OR13a DoOR response (OR13a): 0.024 |
| CC(=O)OCCC(C)C [isopentyl acetate] | 0.41 | 0.64 | 0.03 | 0.34 | 0.00 | 0.07 | 0.0239 | 0 | 0.07146 | 0 | – | – | – | – | – | – | – | – | – | – | OR49b DoOR response (OR49b): 0.027; OR10a DoOR response (OR10a): 0.42; activation at 1 µM (Drosophila OR85b; [1]): 0%; activation at 10 µM (Drosophila OR85b; [1]): 7%; activation at 100 µM (Drosophila OR85b; [1]): 0%; OR13a DoOR response (OR13a): 0.15 |
| COC(=O)c1ccccc1O [methyl salicylate] | – | – | – | – | 0.00 | 0.0263 | 0.13 | 0 | 0 | 0.1286 | -0.032 | 0.034 | 0.47 | 0.009 | 0.05 | 0.75 | 0.00 | 0.00 | 0.13 | 0.07 | activation at 1 µM (Drosophila OR85b; [5]): 0%; activation at 10 µM (Drosophila OR85b; [5]): 3%; activation at 100 µM (Drosophila OR85b; [5]): 13% |
| OCCc1ccccc1 [phenethyl alcohol] | – | – | – | – | 0.10 | 0.0758 | 0.04 | 0.09884 | 0.07579 | 0 | 0.009 | -0.01 | 0.17 | 0.006 | 0.09 | 0.014 | 0.10 | 0.0758 | 0.00 | 0.12 | – |
| CCCOC(C)=O [propyl acetate] | – | – | – | – | 0.0538 | 0.0361 | 0.00 | 0.05375 | 0 | 0 | 0.68 | 0.50 | 0.04 | 0.49 | 0.023 | 0.18 | 0.0538 | 0.00 | 0.00 | 0.14 | – |
